Values of other authors as cited in PMC10928227, “Assessing biologic/toxicologic effects of extractables from plastic contact materials for advanced therapy manufacturing using cell painting assay and cytotoxicity screening” (Scientific Reports, 2024).
Read-outs that look alike come from different tables or passages of the source.

Legend:
[1] = cited from earlier work; for DNA damage and repair, Single Cell Gel Electrophoresis (comet) Assay: ref Yu F. Sasaki et. al., 2000, Critical Reviews in Toxicology,30(6),Pp.629-799
[2] = cited from earlier work
[3] = Database Genotoxicity & Carcinogenicity ECVAM, ref EURL ECVAM genotoxicity and carcinogencity database, Madia F et al, 2020
[4] = in Vivo, Database Genotoxicity & Carcinogenicity ECVAM, ref EURL ECVAM genotoxicity and carcinogencity database, Madia F et al, 2020
[5] = in Vivo, Database Genotoxicity OASIS
[6] = in Vitro, Chinese hamster, Chinese Hamster Lung (CHL), Duration 6÷18 h, Database Genotoxicity OASIS, ref Sofuni, T., Ed. (1998). Data Book of Chromosomal Aberration Test In Vitro, Revised Edition
[7] = in Vitro, Database Genotoxicity & Carcinogenicity ECVAM, ref EURL ECVAM genotoxicity and carcinogencity database, Madia F et al, 2020

## Nc1ccccc1 [62-53-3]
[1]; [3]
  Chromosome aberration, in Vivo Mammalian Chromosome Aberration Test: Positive
[1]; [4]
  Chromosome aberration, Micronucleus Assay: Positive
  DNA damage and repair, COMET or Alkaline Elution: Positive
[1]; in Vivo, Database Genotoxicity OASIS, ref RESS, NB. et. al., MUTAT. RES. 521(1-2):201-208, 2002
  Chromosome aberration, Micronucleus Assay: Positive
[1]; [5]
  DNA damage and repair, Single Cell Gel Electrophoresis (comet) Assay: Positive
[2]; Mammalian cell line, test guideline not reported, scale Gene mutation I, ref Database: Food TOX Hazard EFSA
  Genetic Toxicity, Genotoxicity: Positive
[2]; Salmonella typhimurium, Strain TA 97, in Vitro, Database: Bacterial mutagenicity ISSSTY, ref CCRIS database,Toxnet databases (Romualdo Benigni)
  Gene mutation, Bacterial Reverse Mutation Assay (e.g. Ames Test): Negative
[2]; Salmonella typhimurium, Strain TA 98(NR), in Vitro, Database: Bacterial mutagenicity ISSSTY, ref CCRIS database,Toxnet databases (Romualdo Benigni)
  Gene mutation, Bacterial Reverse Mutation Assay (e.g. Ames Test): Negative
[2]; Salmonella typhimurium, Strain TA 98, in Vitro, Database: Bacterial mutagenicity ISSSTY, ref CCRIS database,Toxnet databases (Romualdo Benigni)
  Gene mutation, Bacterial Reverse Mutation Assay (e.g. Ames Test): Negative
[2]; Salmonella typhimurium, Strain TA 98, in Vitro, Database: Genotoxicity OASIS, ref Mutation Research, 168 (1986) 69-240, U.S. Environmental Protection Agency
  Gene mutation, Bacterial Reverse Mutation Assay (e.g. Ames Test): Negative
[2]; Salmonella typhimurium, Strain TA 98, in Vitro, Database: Genotoxicity OASIS, ref P&G
  Gene mutation, Bacterial Reverse Mutation Assay (e.g. Ames Test): Negative
[2]; Salmonella typhimurium, Strain TA 100, in Vitro, Database: Bacterial mutagenicity ISSSTY, ref CCRIS database,Toxnet databases (Romualdo Benigni)
  Gene mutation, Bacterial Reverse Mutation Assay (e.g. Ames Test): Negative
[2]; Salmonella typhimurium, Strain TA 100, in Vitro, Database: Genotoxicity OASIS, ref Mutation Research, 168 (1986) 69-240, U.S. Environmental Protection Agency
  Gene mutation, Bacterial Reverse Mutation Assay (e.g. Ames Test): Negative
[2]; Salmonella typhimurium, Strain TA 100, in Vitro, Database: Genotoxicity OASIS, ref P&G
  Gene mutation, Bacterial Reverse Mutation Assay (e.g. Ames Test): Negative
[2]; Salmonella typhimurium, Strain TA 102, in Vitro, Database: Bacterial mutagenicity ISSSTY, ref CCRIS database,Toxnet databases (Romualdo Benigni)
  Gene mutation, Bacterial Reverse Mutation Assay (e.g. Ames Test): Negative
[2]; Salmonella typhimurium, Strain TA 1535, in Vitro, Database: Bacterial mutagenicity ISSSTY, ref CCRIS database,Toxnet databases (Romualdo Benigni)
  Gene mutation, Bacterial Reverse Mutation Assay (e.g. Ames Test): Negative
[2]; Salmonella typhimurium, Strain TA 1535, in Vitro, Database: Genotoxicity OASIS, ref Mutation Research, 168 (1986) 69-240, U.S. Environmental Protection Agency
  Gene mutation, Bacterial Reverse Mutation Assay (e.g. Ames Test): Negative
[2]; Salmonella typhimurium, Strain TA 1535, in Vitro, Database: Genotoxicity OASIS, ref P&G
  Gene mutation, Bacterial Reverse Mutation Assay (e.g. Ames Test): Negative
[2]; Salmonella typhimurium, Strain TA 1537, in Vitro, Database: Bacterial mutagenicity ISSSTY, ref CCRIS database,Toxnet databases (Romualdo Benigni)
  Gene mutation, Bacterial Reverse Mutation Assay (e.g. Ames Test): Negative
[2]; Salmonella typhimurium, Strain TA 1537, in Vitro, Database: Genotoxicity OASIS, ref Mutation Research, 168 (1986) 69-240, U.S. Environmental Protection Agency
  Gene mutation, Bacterial Reverse Mutation Assay (e.g. Ames Test): Negative
[2]; Salmonella typhimurium, Strain TA 1537, in Vitro, Database: Genotoxicity OASIS, ref P&G
  Gene mutation, Bacterial Reverse Mutation Assay (e.g. Ames Test): Negative
[2]; Salmonella typhimurium, Strain TA 1538, in Vitro, Database: Bacterial mutagenicity ISSSTY, ref CCRIS database,Toxnet databases (Romualdo Benigni)
  Gene mutation, Bacterial Reverse Mutation Assay (e.g. Ames Test): Negative
[2]; [6]
  Chromosome aberration, in Vitro Mammalian Chromosome Aberration Test: Positive
[2]; [7]
  Chromosome aberration, Micronucleus Assay: Positive
  Chromosome aberration, in Vitro Mammalian Chromosome Aberration Test: Positive
  Gene mutation, Mammalian Cell Gene Mutation (MLA HPRT): Positive
[2]; in Vitro, Salmonella typhimurium and Escherichia Coli, Database Genotoxicity & Carcinogenicity ECVAM, ref EURL ECVAM genotoxicity and carcinogencity database, Madia F et al, 2020
  Gene mutation, Bacterial Reverse Mutation Assay (e.g. Ames Test): Negative
[2]; in Vitro, Salmonella typhimurium, Strain TA 97, Database Genotoxicity OASIS, ref P&G
  Gene mutation, Bacterial Reverse Mutation Assay (e.g. Ames Test): Negative
[2]; in Vitro, Salmonella typhimurium, Strain TA 98, Database Genotoxicity OASIS, ref Mutation Research, 168 (1986) 69-240, U.S. Environmental Protection Agency
  Gene mutation, Bacterial Reverse Mutation Assay (e.g. Ames Test): Negative
[2]; in Vitro, Salmonella typhimurium, Strain TA 98, Database Genotoxicity OASIS, ref P&G
  Gene mutation, Bacterial Reverse Mutation Assay (e.g. Ames Test): Negative
[2]; in Vitro, Salmonella typhimurium, Strain TA 100, Database Genotoxicity OASIS, ref P&G
  Gene mutation, Bacterial Reverse Mutation Assay (e.g. Ames Test): Negative
[2]; in Vitro, Salmonella typhimurium, Strain TA 102, OECD Guideline 471, Database Genotoxicity OASIS, ref CCRIS database,Toxnet databases
  Gene mutation, Bacterial Reverse Mutation Assay (e.g. Ames Test): Negative
[2]; in Vitro, Salmonella typhimurium, Strain TA 1535, Database Genotoxicity OASIS, ref P&G
  Gene mutation, Bacterial Reverse Mutation Assay (e.g. Ames Test): Negative
[2]; in Vitro, Salmonella typhimurium, Strain TA 1537, Database Genotoxicity OASIS, ref Mutation Research, 168 (1986) 69-240, U.S. Environmental Protection Agency
  Gene mutation, Bacterial Reverse Mutation Assay (e.g. Ames Test): Negative
[2]; in Vitro, Salmonella typhimurium, Strain TA 1537, Database Genotoxicity OASIS, ref P&G
  Gene mutation, Bacterial Reverse Mutation Assay (e.g. Ames Test): Negative
[2]; in Vitro, Salmonella typhimurium, Strain TA 1538, Database Genotoxicity OASIS, ref P&G
  Gene mutation, Bacterial Reverse Mutation Assay (e.g. Ames Test): Negative
[2]; in Vitro, scale Mutagenicity I (ECVAM), ref EURL ECVAM genotoxicity and carcinogencity database, Madia F et al, 2020
  Genetic Toxicity, unscheduled DNA synthesis (UDS in Vitro): Negative

## Cc1cc(C(C)(C)C)c(O)c(C(C)(C)C)c1 [128-37-0]
[1]; [3]
  Chromosome aberration, in Vivo Mammalian Chromosome Aberration Test: Negative
[1]; [4]
  Chromosome aberration, Micronucleus Assay: Negative
  DNA damage and repair, COMET or Alkaline Elution: Positive
  DNA damage and repair, DNA Adducts: Negative
[1]; in Vivo, Database Genotoxicity OASIS, ref Bruce, W. R., & Heddle, J. A. (1979), Can. J. Genet. Cytol. 21, 319-334
  Chromosome aberration, Micronucleus Assay: Negative
[1]; [5]
  DNA damage and repair, Single Cell Gel Electrophoresis (comet) Assay: Negative
[2]; [6]
  Chromosome aberration, in Vitro Mammalian Chromosome Aberration Test: Negative
[2]; in Vitro, Chinese hamster, Chinese Hamster Lung (CHL), Duration 24÷48 h, Database Genotoxicity OASIS, ref Sofuni, T., Ed. (1998). Data Book of Chromosomal Aberration Test In Vitro, Revised Edition
  Chromosome aberration, in Vitro Mammalian Chromosome Aberration Test: Negative
[2]; [7]
  Chromosome aberration, in Vitro Mammalian Chromosome Aberration Test: Equivocal
  Gene mutation, Mammalian Cell Gene Mutation (MLA HPRT): Positive
[2]; in Vitro, No Strain Information, Database Genotoxicity OASIS, ref Mutation Research 584 (2005) 1-256, Kirkland et al.
  Chromosome aberration, in Vitro Mammalian Chromosome Aberration Test: Negative
[2]; in Vitro, T-lymphoma Cell Lines, Database Genotoxicity OASIS, ref Mutation Research 584 (2005) 1-256, Kirkland et al.
  Gene mutation, Mammalian Cell Gene Mutation Assay: Positive
